# Measurements taken from publication PMC8344233, “Anticancer activity and toxicity of new quaternary ammonium geldanamycin derivative salts and their mixtures with potentiators” (Journal of Enzyme Inhibition and Medicinal Chemistry, 2021).
# Experiments:
# MDA-MB-231 = test: MTT cytotoxicity assay, MDA-MB-231 (1st panel); format: cell-based, human
# Method: (§1) Cell survival was measured as the percentage absorbance compared to the control (nontreated cells). […]
# (§2) SI indexes were calculated from equation SI = IC50 normal cell line HDF/IC50 respective cancerous cell line (Table 2). A beneficial SI > 1.0 indicates a compound with efficacy against tumor cell greater than the toxicity against normal cells.
# (§3) All experiments were carried out with human breast adenocarcinoma (MDA-MB-231 and MCF-7), hepatocellular carcinoma (HepG2), human cervical adenocarcinoma (HeLa) cancer cell lines, and human normal lung fibroblast (CCD39Lu) cell line. The cell line was purchased from the European Collection of Cells Cultures (ECACC, Salisbury, UK), and cultured in DMEM with phenol red supplemented with 10% (v/v) FBS, 1% (v/v) penicillin/streptomycin, and 1% (v/v) L-glutamine at 37 °C, in a humidified atmosphere containing 5% CO2.
# (§4) The tested compounds were dissolved in DMSO to the final concentration 10 mM and stored […]
# (§5) The cytotoxic effect of the tested compounds was determined by MTT assay. MDA-MB-231, MCF-7, HepG2, HeLa, and CCD39Lu cells were seeded in 96 wells plates at density 2x10^4 cells/well and incubated overnight under cell culture condition. Next, cells were treated with tested compounds at concentrations of 10 µM; 5 µM; 2.5 µM; 1.2 µM; 0.6 µM; 0.3 µM; 0.15 […]
# (§6) µM. Moreover, GDM (for MCF-7) and 8 (for MCF-7 and MDA-MB-231) due to high cytotoxicity, were additionally tested at a lower concentration range of 2.5 µM; 1.2 µM; 0.6 µM; 0.3 µM; 0.15µM; 0.07 µM; 0.03 µM. DMSO was used as a control, and the concentration […]
# (§7) Tested compounds were added to cells in the medium without phenol red. Cells were incubated 72 h at 37 °C in a humidified atmosphere containing 5% CO2.
# (§8) Then, the medium was aspirated and MTT solution at a concentration of 0.59 mg/mL in cell culture medium was added to each well. Plates were incubated for 1.5 hours at 37 °C, and then plates were centrifuged for 3 minutes. The formazan crystals were dissolved in 200 µl DMSO and plates were agitated on a plate shaker at 300 –500 rpm for 10 minutes. Absorbance at 570 nm was measured using a plate reader (Biotek Instruments, Elx -800). Data were normalized to the mean absorption of control cells. All experiments were performed at least three times. […]
# MCF-7 = test: MTT cytotoxicity assay, MCF-7 (1st panel); format: cell-based, human
# Method: as §1, §2, §3, §4, §5, §6, §7, §8
# HeLa = test: MTT cytotoxicity assay, HeLa (1st panel); format: cell-based, human
# Method: as §1, §2, §3, §4, §5, §6, §7, §8
# HepG2 = test: MTT cytotoxicity assay, HepG2 (1st panel); format: cell-based, human
# Method: as §1, §2, §3, §4, §5, §6, §7, §8
# CCD39Lu = test: MTT cytotoxicity assay, normal lung fibroblasts CCD39Lu; format: cell-based; details: Fibroblast, ± SD, healthy human lung fibroblasts, 72 h, read-out: IC50 CCD39Lu (toxicity in normal cells)
# Method: as §1, §2, §3, §4, §5, §6, §7, §8
# SKBR-3 = test: SRB cytotoxicity assay, SKBR-3 (2nd panel); format: cell-based, human
# Method: (§9) Human cancer cells SKBR-3 (human breast cancer cell line) and SKOV-3 (ovarian cancer cell line) were cultured in McCoy’s Modified Medium. […]
# (§10) Medium. Human Dermal Fibroblasts cell line (HDF) was cultured in Fibroblast Basal Medium.
# (§11) Each medium was supplemented with 10% fetal bovine serum, 1% L-glutamine, and 1% penicillin/streptomycin solution. The cell lines were kept in the incubator at 37◦C. The optimal plating density of cell lines was determined to be 5 × 104. All the cell lines and mediums were obtained from American Type Culture Collection (ATCC) supplied by LGC-Standards. The protein-staining SRB (Sigma-Aldrich) microculture colorimetric assay, developed by the National Cancer Institute (USA) for in vitro antitumor screening was used in this study, to estimate the cell number by providing a sensitive index of total cellular protein content, being linear to cell density. The monolayer cell culture was trypsinized and the cell count was adjusted to 5 × 10^4 cells. To each well of the 96 well microtiter plate, 0.1 mL of the diluted cell suspension (approximately […]) was added. After 24 hours, when a partial monolayer was formed, the supernatant was washed out and 100 μL of six different compound concentrations (0.1, 0.2, 1, 2, 10, and 20 μM) were added to the cells in microtitre plates. The tested compounds were dissolved in DMSO (containing 10 % of water) (100 μL) and the […]
# (§12) lines. The cells were exposed to compounds for 72 hours at 37 °C in a humidified atmosphere (90% RH) containing 5% CO2. After that, 25 μL of 50 % trichloroacetic acid was added to the wells and the plates were incubated for 1 hour at 4◦C. The plates were then washed out with the distilled water to remove traces of medium and next dried by the air. The air-dried plates were stained with 100 μL of 0.4% sulforhodamine B (prepared in 1 % acetic acid) and kept for 30 minutes at room temperature. The unbound dye was removed by rapidly washing with 1% […]
# (§13) acetic acid and then air dried overnight. The protein-bound dye was dissolved in 100 μL of 10 mM unbuffered Tris base (pH 10.5) for optical density determination at 490 nm. All cytotoxicity experiments were performed three times. Cell survival was measured as the percentage absorbance compared to the control (nontreated cells). Cytarabine (ara-C) and GDM were used as the internal standards. Additionally biological assays were performed in Human Dermal Fibroblasts cell line (HDF) in aim to evaluate cytotoxicity of GDM and its 1-13 analogs in healthy cells. SI indexes were calculated from equation SI = IC50 normal cell line HDF/IC50 respective cancerous cell line (Table 2). A beneficial SI > 1.0 indicates a compound with efficacy against tumor cell greater than the toxicity against normal cells. […]
# SKOV-3 = test: SRB cytotoxicity assay, SKOV-3 (2nd panel); format: cell-based, human
# Method: as §9, §10, §11, §12, §13
# PC-3 = test: SRB cytotoxicity assay, PC-3 (2nd panel); format: cell-based, human
# Method: as §10, §11, §12, §13
# U-87 = test: SRB cytotoxicity assay, U-87 (2nd panel); format: cell-based, human
# Method: U-87MG cells (glioblastoma cell line) were cultured in Eagle’s Minimal Essential Medium. Human Dermal Fibroblasts cell line (HDF) was cultured in Fibroblast Basal Medium.
# as §11, §12, §13
# A-549 = test: SRB cytotoxicity assay, A-549 (2nd panel); format: cell-based, human
# Method: as §10, §11, §12, §13
# HDF = test: SRB cytotoxicity assay, human dermal fibroblasts HDF; format: cell-based; details: 72 h, ± SD, mixtures equimolar 1:1, read-out: IC50 HDF (toxicity in normal cells)
# Method: as §10, §11, §12, §13
smiles,measurement,setting,value
"COC1=C2C[C@@H](C)C[C@H](OC)[C@H](O)[C@@H](C)/C=C(\C)[C@H](OC(N)=O)[C@@H](OC)/C=C\C=C(/C)C(=O)NC(=CC1=O)C2=O [GDM, Geldanamycin]",IC50,"MDA-MB-231; Homo sapiens, MDA-MB-231, ± SD, MTT, 72 h",1040 ± 630 nM
same,selectivity index SI (MDA-MB-231),MDA-MB-231; IC50 normal cell line CCD39Lu/IC50 MDA-MB-231,8.17
same,IC50,"MCF-7; Homo sapiens, MCF7, 72 h, ± SD, MTT, 72 h",3.51 ± 0.21 µM
same,selectivity index SI (MCF-7),MCF-7; IC50 normal cell line CCD39Lu/IC50 MCF-7,2.42
same,IC50,"HeLa; Homo sapiens, HeLa, ± SD, MTT, 72 h",1420 ± 100 nM
same,selectivity index SI (HeLa),HeLa; IC50 normal cell line CCD39Lu/IC50 HeLa,5.99
same,IC50,"HepG2; Homo sapiens, HepG2, ± SD, MTT, 72 h",740 ± 320 nM
same,selectivity index SI (HepG2),HepG2; IC50 normal cell line CCD39Lu/IC50 HepG2,11.48
same,IC50,CCD39Lu,8.5 ± 0.25 µM
same,IC50,"SKBR-3; Homo sapiens, SK-BR-3, ± SD, SRB, 72 h, mixtures equimolar 1:1",870 ± 170 nM
same,selectivity index SIHDF (SKBR-3),SKBR-3; IC50 normal cell line HDF/IC50 SKBR-3,2.45
same,IC50,"SKOV-3; Homo sapiens, SK-OV-3, ± SD, SRB, 72 h, mixtures equimolar 1:1",940 ± 90 nM
same,selectivity index SIHDF (SKOV-3),SKOV-3; IC50 normal cell line HDF/IC50 SKOV-3,2.27
same,IC50,"PC-3; Homo sapiens, PC-3, ± SD, SRB, 72 h, mixtures equimolar 1:1",730 ± 10 nM
same,selectivity index SIHDF (PC-3),PC-3; IC50 normal cell line HDF/IC50 PC-3,2.92
same,IC50,"U-87; Homo sapiens, U-87 MG, ± SD, SRB, 72 h",810 ± 120 nM
same,selectivity index SIHDF (U-87),U-87; IC50 normal cell line HDF/IC50 U-87,2.62
same,IC50,"A-549; Homo sapiens, A549, ± SD, SRB, 72 h",990 ± 10 nM
same,selectivity index SIHDF (A-549),A-549; IC50 normal cell line HDF/IC50 A-549,2.15
same,CC50,HDF,2130 ± 110 nM
same,Solubility SH2O,Water solubility SH2O,almost water-insoluble
